Reference: patent US10578610B2, “Peptide regulators of mitochondrial fusion and methods of use” (priority 2016, dated 2020)
Ends that are not written are not given here.

Columns and labels:
[1] = system: Mfn null MEFs expressing Mfn2 K109A or Mfn2 AA; assay: TAT-minipeptides in Mfn null MEFs expressing Mfn2 mutants; type: cell-based, murine; conditions: for mitochondrial morphology: Mfn null MEFs expressing Mfn2 AA
Excerpt: The efficacy of the minipeptides to correct mitochondrial abnormalities in Mfn null MEFs was further evaluated. In this experiment, several Mfn2 mutants having well-characterized and diverse functional profiles were introduced into Mfn null MEFs. As shown above, mitochondria of MEFs lacking Mfn1 and Mfn2 are highly fragmented. Adenoviral reintroduction of WT Mfn2 corrected dysmorphology in Mfn null MEFs and was required for TAT minipeptides to alter mitochondrial fusion in these cells (FIGS. 12A-12B). By contrast, adenoviral expression of mouse Mfn2 K109A, a GTPase defective mutant (Detmer and Chan, 2007, J Cell Biol, 176:405-414), had no effect on mitochondrial fragmentation in Mfn null MEFs. […] Mitochondrial morphometry in Mfn null MEFs expressing fusion-impaired Mfn2 EE, which has glutamate substitutions to mimic phosphorylation at Mfn2 T111 and […], was more variable (FIG. 12A-12B).

[2] = system: mice subjected to cerebral ischemia; assay: Temporary middle cerebral artery (MCA) occlusion followed by reperfusion; type: in vivo
Procedure: Studies were done to study the effects of TetherX-1 (SEQ ID NO:24) administration on cerebral tissue damage in mice in which ischemia was induced. In this blinded and placebo-controlled studies, 40 mice were subjected to temporary (40 minutes) middle cerebral artery (MCA) occlusion followed by reperfusion for 24 hours. Brains were removed and analyzed for direct and indirect infarct area and volume. […] Moreover, TetherX-1 administration reduced cerebral deficit (FIG. 20) and cerebral swelling (FIG. 21).

Mfn1/Mfn2 DKO MEFs = assay: Confocal localization of FITC-labeled TAT-minipeptides in mitofusin null cells; type: cell-based, murine; conditions: MEFs completely lacking mitofusins
Procedure: (§1) The above results support the premise that TAT-conjugated Mfn2 minipeptides affect mitochondrial fusion by modulating Mfn1 and Mfn2 conformation according to the dynamic structure model depicted in FIGS. 3A-3C. Additional studies were performed to validate this mechanism of action using the minipeptide-Mfn2 binding assay procedure. Confocal localization of FITC-labeled TAT-minipeptides in WT MEFs and Mfn null MEFs (Mfn1/Mfn2 DKO) was used for analysis of interaction between the minipeptides and mitochondrial mitofusins. Mitochondria were stained with MitoTracker Orange; nucleus was stained with Blue Hoechst. Line-scans were generated for the confocal photographs.
(§2) Thus, cell-internalized TAT-conjugated Mfn2 HR1 minipeptides bind specifically to mitochondrial mitofusins.

[3] = system: mitochondrial mitofusins in WT MEFs; assay: Confocal localization of FITC-labeled TAT-minipeptides; type: cell-based, murine
Procedure: as §1, §2

[4] = system: cultured rat motor neurons infected with adeno-Mfn2 K109A; assay: Motor neurons infected with adeno-Mfn2 K109A; type: cell-based; conditions: 1 μM for 24 hours vs TAT control
Procedure: The efficacy of TAT-367-384Gly to correct mitochondrial pathology induced by a GTPase-defective Mfn2 mutant was examined in the CMT2A-relevant cell type, motor neurons. Motor neurons were isolated from E17 Sprague-Dawley rats and cultured as described in Wang et al., 2013, Hum Mol Genet 22:4706-4719. After 10 days in culture, neurons were infected twice, 8 hours apart, with 50 MOI of adenoviral WT-Mfn2 or K109A Mfn2 and treated with 1 μM TAT-367-384 Gly or control TAT peptide for 24 hours. Mitochondria of formalin-fixed nerons were labeled with anti-TOM20 (Santa Cruz Biotechnology). Neurons were stained with Hoechst 33342. Laser confocal imaging using a 63× oil objective was used to identify isolated mitochondria for determination of aspect ratio.
Representative anti-TOM20/Hoechst images of formalin-fixed cultured neurons infected with adeno-Mfn2K109A (FIG. 15A) or adeno-WT Mfn2 (FIG. 15B) and treated for 24 h with 1 μM TAT control (Ctrl) or TAT-367-384Gly minipeptide. Scale bars are 10 microns. N=20-23 per treatment group; *=P<0.05 vs Ctrl (Student's t-test).

[5] = system: hippocampal and cortical neurons carrying Mfn2 T105M fl/st; assay: Hippocampal and cortical neurons with induced Mfn2 T105M; type: cell-based, mouse; conditions: Mfn2 T105M induced by adeno-Cre; 1 μM for 24 hours
Procedure: Finally, to test the efficacy of fusion promotion by conformational manipulation in a model of a naturally-occurring human CMT2A mutation, hippocampal and cortical neurons were cultured from mouse pups carrying the conditional Mfn2 T105M fl/st expression allele.
Hippocampal and cortical neurons were prepared from individual P0-P1 mouse pups using a modification of methods described for rat neuronal culture (Mennerick et al., 1995, J Neurophysiol, 73:320-332). Mouse pups were genotyped after the fact to determine presence or absence of the MFN2*T105M transgene; neurons derived from mice lacking the transgene were designated as normal controls. […] Immunoblot of Mfn2 expression in T105M fl/st cortical neurons 72 h after adeno-Cre or adeno-β-gal (Ctrl) is shown in FIG. 16B with quantitative data to the right (n=4). […]
Merged live confocal images of cultured neurons without (no Cre) and with (+Cre) Mfn2 T105M induction, and in Mfn2 T105M-induced neurons 24 h after addition of 1 μM TAT-367-384Gly are shown in FIG. 16C. […] Quantitative data are provided in FIG. 16E; each point is result from one of 3 independently-established Mfn2 T105M neuronal cultures, each with 3 biological replicates of ˜20 neurons. *=P<0.01 vs no Cre; #=P<0.01 vs T105M+Cre.

[6] = 3 mg/kg intravenously 1 hour before ischemia and immediately prior to reperfusion, vs vehicle
[7] = 3 mg/kg intravenously, vs vehicle
[8] = Mfn null MEFs expressing only Mfn2 K109A

| Sequence | mitochondrial morphology [1] | direct infarct area ([2]; 3 mg/kg intravenously 1 hour before ischemia and immediately prior to reperfusion, 40 minutes MCA occlusion, reperfusion 24 hours, vs vehicle (water)) | direct infarct volume [2, 6] | indirect infarct area [2, 6] | indirect infarct volume [2, 6] | cerebral deficit [2, 7] | cerebral swelling [2, 7] | localization of FITC-labeled TAT-peptide to mitochondria (Mfn1/Mfn2 DKO MEFs) | localization of FITC-labeled TAT-peptide to mitochondria [3] | mitochondrial fragmentation (aspect ratio) [4] | mitochondrial aspect ratio / mitochondrial pathology [1, 8] | mitochondrial clumping [1, 8] | neuronal mitochondrial dysmorphology with fragmentation, partial depolarization and clumping [5] |
| --- | --- | --- | --- | --- | --- | --- | --- | --- | --- | --- | --- | --- | --- |
| QDRLKFIDKQGELLAQDYKLRGGYGRKKRRQRRR [TAT-398-418Gly] | mitochondrial shortening | decrease | decrease | decrease | decrease | reduced | reduced | not to MEFs completely lacking mitofusins | decorated mitochondria | – | – | – | – |
| QIAEAVRGIMDSLHMAARGGYGRKKRRQRRR [TAT-367-384Gly] | mitochondrial hyper-elongation | – | – | – | – | – | – | not to MEFs completely lacking mitofusins | decorated mitochondria | fully normalized | did not correct mitochondrial pathology | mitochondrial clumping induced | largely reversed these abnormalities |
